Data on 33 compounds can be found in US9511058B2, “Methods for using carboxamide, sulfonamide and amine compounds” (Rigel Pharmaceuticals, Inc., priority 2010, dated 2016).

SMILES strings stand for the structures.

For orientation: EC50 means the concentration at which the effect is half-maximal. Low values mean greater potency, high ones weaker potency.

For this test, the target named is AMPK. The experiment in a line: AMPK activation, enzyme-linked immunosorbent assay. The test is classed as biochemical. To be noted: compounds of Table 1 (Table 6). The protocol:
Compounds of Table 1 were assayed for their ability to activate AMPK using an enzyme-linked immunosorbent assay.
Compounds of Table 2 were assayed for their ability to activate AMPK using an enzyme-linked immunosorbent assay.
Compounds of Table 3 were assayed for their ability to activate AMPK using an enzyme-linked immunosorbent assay.
Compounds of Table 4 were assayed for their ability to activate AMPK using an enzyme-linked immunosorbent assay.
Compounds of Table 5 were assayed for their ability to activate AMPK using an enzyme-linked immunosorbent assay.
On to `N#Cc1ccc(N2CCC(Oc3ccc(C(=O)NC4CCN(Cc5ccncc5)CC4)nc3)CC2)cc1` [1-1, 5-(1-(4-cyanophenyl)piperidin-4-yloxy)-N-(1-(pyridin-4-ylmethyl)piperidin-4-yl)picolinamide], for which the EC50 lay within 100 to 500 nM. With `N#Cc1ccc(CN2CCC(NC(=O)c3ccc(OC4CCN(c5ccc(C#N)cc5)CC4)cn3)CC2)cc1` [1-2, N-(1-(4-cyanobenzyl)piperidin-4-yl)-5-(1-(4-cyanophenyl)piperidin-4-yloxy)picolinamide] the figure was under 100 nM. With `O=C(NC1CCN(Cc2ccncc2)CC1)c1ccc(OC2CCN(c3ccc(C(F)(F)F)cc3)CC2)cn1` [1-3, N-(1-(pyridin-4-ylmethyl)piperidin-4-yl)-5-(1-(4-(trifluoromethyl)phenyl)piperidin-4-yloxy)picolinamide] the figure was under 100 nM; with `N#Cc1ccc(CN2CCC(NC(=O)c3ccc(OC4CCN(c5ccc(C(F)(F)F)cc5)CC4)cn3)CC2)cc1` [1-4, N-(1-(4-cyanobenzyl)piperidin-4-yl)-5-(1-(4-(trifluoromethyl)phenyl)piperidin-4-yloxy)picolinamide], under 100 nM; with `O=C(NC1CCN(Cc2cccnc2)CC1)c1ccc(OC2CCN(c3ccc(C(F)(F)F)cc3)CC2)cn1` [1-5, N-(1-(pyridin-3-ylmethyl)piperidin-4-yl)-5-(1-(4-(trifluoromethyl)phenyl)piperidin-4-yloxy)picolinamide], under 100 nM. With `N#Cc1ccc(N2CCC(Oc3ccc(C(=O)NC4CCN(Cc5cccnc5)CC4)nc3)CC2)cc1` [1-6, N-(1-(pyridin-3-ylmethyl)piperidin-4-yl)-5-(1-(4-cyanophenyl)piperidin-4-yloxy)picolinamide] the figure was 100 to 500 nM. Take `COC(=O)c1ccc(CN2CCC(NC(=O)c3ccc(OC4CCN(c5ccc(C#N)cc5)CC4)cn3)CC2)cc1` [1-7, methyl 4-((4-(5-(1-(4-cyanophenyl)piperidin-4-yloxy)picolinamido)piperidin-1-yl)methyl)benzoate]: the EC50 is under 100 nM. With `COC(=O)c1ccc(CN2CCC(NC(=O)c3ccc(OC4CCN(c5ccc(C(F)(F)F)cc5)CC4)cn3)CC2)cc1` [1-8, methyl 4-((4-(5-(1-(4-(trifluoromethyl)phenyl)piperidin-4-yloxy)picolinamido)piperidin-1-yl)methyl)benzoate] the figure was under 100 nM; with `CC(C)(C)OC(=O)N1CCC(NC(=O)c2ccc(OC3CCN(c4ccc(C(F)(F)F)cc4)CC3)nc2)CC1` [1-9, tert-butyl 4-(6-(1-(4-(trifluoromethyl)phenyl)piperidin-4-yloxy)nicotinamido)piperidine-1-carboxylate], 100 to 500 nM; with `O=C(NC1CCN(Cc2ccncc2)CC1)c1ccc(OC2CCN(c3ccc(C(F)(F)F)cc3)CC2)nc1` [1-10, N-(1-(pyridin-4-ylmethyl)piperidin-4-yl)-6-(1-(4-(trifluoromethyl)phenyl)piperidin-4-yloxy)nicotinamide], under 100 nM. `O=C(NC1CCN(Cc2ccc(F)cc2)CC1)c1ccc(OC2CCN(c3ccc(C(F)(F)F)cc3)CC2)nc1` [1-11, N-(1-(4-fluorobenzyl)piperidin-4-yl)-6-(1-(4-(trifluoromethyl)phenyl)piperidin-4-yloxy)nicotinamide]: the EC50 was under 100 nM.

As to `CC(C)(C)OC(=O)N1CCC(NC(=O)c2cc(OC3CCN(c4ccc(C(F)(F)F)cc4)CC3)ccn2)CC1` [1-12, tert-butyl 4-(4-(1-(4-(trifluoromethyl)phenyl)piperidin-4-yloxy)picolinamido)piperidine-1-carboxylate], the EC50 was 500 to 1000 nM. In turn, `O=C(NC1CCN(Cc2ccncc2)CC1)c1cc(OC2CCN(c3ccc(C(F)(F)F)cc3)CC2)ccn1` [1-13, N-(1-(pyridin-4-ylmethyl)piperidin-4-yl)-4-(1-(4-(trifluoromethyl)phenyl)piperidin-4-yloxy)picolinamide] registered an EC50 of 100 to 500 nM.

As to `O=C(NC1CCN(Cc2ccncc2)CC1)c1cncc(OC2CCN(c3ccc(C(F)(F)F)cc3)CC2)c1` [1-14, N-(1-(pyridin-4-ylmethyl)piperidin-4-yl)-5-(1-(4-(trifluoromethyl)phenyl)piperidin-4-yloxy)nicotinamide], the EC50 was under 100 nM. With `CC(C)(C)OC(=O)N1CCC(NC(=O)c2ccnc(OC3CCN(c4ccc(C(F)(F)F)cc4)CC3)c2)CC1` [1-15, tert-butyl 4-(2-(1-(4-(trifluoromethyl)phenyl)piperidin-4-yloxy)isonicotinamido)piperidine-1-carboxylate] the figure was 1000 to 5000 nM.

On to `N#Cc1ccc(CN2CCC(NC(=O)c3cncc(OC4CCN(c5ccc(C(F)(F)F)cc5)CC4)c3)CC2)cc1` [1-17, N-(1-(4-cyanobenzyl)piperidin-4-yl)-5-(1-(4-(trifluoromethyl)phenyl)piperidin-4-yloxy)nicotinamide], for which the EC50 is under 100 nM.

`O=C(NC1CCN(Cc2cccnc2)CC1)c1cncc(OC2CCN(c3ccc(C(F)(F)F)cc3)CC2)c1` [1-18, N-(1-(pyridin-3-ylmethyl)piperidin-4-yl)-5-(1-(4-(trifluoromethyl)phenyl)piperidin-4-yloxy)nicotinamide] gave an EC50 of under 100 nM. With `O=C(NC1CCNCC1)c1ccnc(OC2CCN(c3ccc(C(F)(F)F)cc3)CC2)c1` [1-19, N-(piperidin-4-yl)-2-(1-(4-(trifluoromethyl)phenyl)piperidin-4-yloxy)isonicotinamide] the figure was 1000 to 5000 nM; with `O=C(NC1CCN(Cc2ccncc2)CC1)c1ccnc(OC2CCN(c3ccc(C(F)(F)F)cc3)CC2)c1` [1-20, N-(1-(pyridin-4-ylmethyl)piperidin-4-yl)-2-(1-(4-(trifluoromethyl)phenyl)piperidin-4-yloxy)isonicotinamide], 500 to 1000 nM.

In turn, `N#Cc1ccc(CN2CCC(NC(=O)c3ccnc(OC4CCN(c5ccc(C(F)(F)F)cc5)CC4)c3)CC2)cc1` [1-21, N-(1-(4-cyanobenzyl)piperidin-4-yl)-2-(1-(4-(trifluoromethyl)phenyl)piperidin-4-yloxy)isonicotinamide] registered an EC50 of 100 to 500 nM. With `O=C(NC1CCN(Cc2ccc(F)cc2)CC1)c1ccnc(OC2CCN(c3ccc(C(F)(F)F)cc3)CC2)c1` [1-22, N-(1-(4-fluorobenzyl)piperidin-4-yl)-2-(1-(4-(trifluoromethyl)phenyl)piperidin-4-yloxy)isonicotinamide] the figure was 1000 to 5000 nM; with `CC(C)(C)OC(=O)N1CC[C@@H](NC(=O)c2ccc(OC3CCN(c4ccc(C(F)(F)F)cc4)CC3)cn2)C1` [1-23, (R)-tert-butyl 3-(5-(1-(4-(trifluoromethyl)phenyl)piperidin-4-yloxy)picolinamido)pyrrolidine-1-carboxylate], 100 to 500 nM. With `O=C(N[C@@H]1CCNC1)c1ccc(OC2CCN(c3ccc(C(F)(F)F)cc3)CC2)cn1` [1-24, (R)-N-(pyrrolidin-3-yl)-5-(1-(4-(trifluoromethyl)phenyl)piperidin-4-yloxy)picolinamide] the figure was 5000 to 10000 nM; with `O=C(N[C@@H]1CCN(Cc2ccncc2)C1)c1ccc(OC2CCN(c3ccc(C(F)(F)F)cc3)CC2)cn1` [1-25, (R)-N-(1-(pyridin-4-ylmethyl)pyrrolidin-3-yl)-5-(1-(4-(trifluoromethyl)phenyl)piperidin-4-yloxy)picolinamide], 100 to 500 nM.

Consider `CC(C)(C)OC(=O)N1CC[C@H](NC(=O)c2ccc(OC3CCN(c4ccc(C(F)(F)F)cc4)CC3)cn2)C1` [1-26, (S)-tert-butyl 3-(5-(1-(4-(trifluoromethyl)phenyl)piperidin-4-yloxy)picolinamido)pyrrolidine-1-carboxylate], for which the EC50 is 100 to 500 nM. With `O=C(N[C@H]1CCNC1)c1ccc(OC2CCN(c3ccc(C(F)(F)F)cc3)CC2)cn1` [1-27, (S)-N-(pyrrolidin-3-yl)-5-(1-(4-(trifluoromethyl)phenyl)piperidin-4-yloxy)picolinamide] the figure was over 10000 nM; with `N#Cc1ccc(CN2CCC(NC(=O)c3cc(OC4CCN(c5ccc(C(F)(F)F)cc5)CC4)ccn3)CC2)cc1` [1-28, N-(1-(4-cyanobenzyl)piperidin-4-yl)-4-(1-(4-(trifluoromethyl)phenyl)piperidin-4-yloxy)picolinamide], under 100 nM. With `O=C(NC1CCN(Cc2ccc(F)cc2)CC1)c1cc(OC2CCN(c3ccc(C(F)(F)F)cc3)CC2)ccn1` [1-29, N-(1-(4-fluorobenzyl)piperidin-4-yl)-4-(1-(4-(trifluoromethyl)phenyl)piperidin-4-yloxy)picolinamide] the figure was 100 to 500 nM; with `O=C(N[C@H]1CCN(Cc2ccncc2)C1)c1ccc(OC2CCN(c3ccc(C(F)(F)F)cc3)CC2)cn1` [1-30, (S)-N-(1-(pyridin-4-ylmethyl)pyrrolidin-3-yl)-5-(1-(4-(trifluoromethyl)phenyl)piperidin-4-yloxy)picolinamide], under 100 nM. `N#Cc1ccc(CN2CC[C@H](NC(=O)c3ccc(OC4CCN(c5ccc(C(F)(F)F)cc5)CC4)cn3)C2)cc1` [1-31, (S)-N-(1-(4-cyanobenzyl)pyrrolidin-3-yl)-5-(1-(4-(trifluoromethyl)phenyl)piperidin-4-yloxy)picolinamide] came in with an EC50 of under 100 nM. The compound `O=C(N[C@H]1CCN(Cc2ccc(F)cc2)C1)c1ccc(OC2CCN(c3ccc(C(F)(F)F)cc3)CC2)cn1` [1-32, (S)-N-(1-(4-fluorobenzyl)pyrrolidin-3-yl)-5-(1-(4-(trifluoromethyl)phenyl)piperidin-4-yloxy)picolinamide] registered an EC50 of 100 to 500 nM. As to `N#Cc1ccc(CN2CC[C@@H](NC(=O)c3ccc(OC4CCN(c5ccc(C(F)(F)F)cc5)CC4)cn3)C2)cc1` [1-33, (R)-N-(1-(4-cyanobenzyl)pyrrolidin-3-yl)-5-(1-(4-(trifluoromethyl)phenyl)piperidin-4-yloxy)picolinamide], the EC50 lay in the range of 500 to 1000 nM. The compound `O=C(N[C@@H]1CCN(Cc2ccc(F)cc2)C1)c1ccc(OC2CCN(c3ccc(C(F)(F)F)cc3)CC2)cn1` [1-34, (R)-N-(1-(4-fluorobenzyl)pyrrolidin-3-yl)-5-(1-(4-(trifluoromethyl)phenyl)piperidin-4-yloxy)picolinamide] came in with an EC50 of 500 to 1000 nM.
